# pKd: −log10 of the molar value.
# Biological target: T1, Mer (Homo sapiens, UniProt Q12866)
# T1 construct: purchased Life Technologies
# T1 sequence (Q12866 21-999): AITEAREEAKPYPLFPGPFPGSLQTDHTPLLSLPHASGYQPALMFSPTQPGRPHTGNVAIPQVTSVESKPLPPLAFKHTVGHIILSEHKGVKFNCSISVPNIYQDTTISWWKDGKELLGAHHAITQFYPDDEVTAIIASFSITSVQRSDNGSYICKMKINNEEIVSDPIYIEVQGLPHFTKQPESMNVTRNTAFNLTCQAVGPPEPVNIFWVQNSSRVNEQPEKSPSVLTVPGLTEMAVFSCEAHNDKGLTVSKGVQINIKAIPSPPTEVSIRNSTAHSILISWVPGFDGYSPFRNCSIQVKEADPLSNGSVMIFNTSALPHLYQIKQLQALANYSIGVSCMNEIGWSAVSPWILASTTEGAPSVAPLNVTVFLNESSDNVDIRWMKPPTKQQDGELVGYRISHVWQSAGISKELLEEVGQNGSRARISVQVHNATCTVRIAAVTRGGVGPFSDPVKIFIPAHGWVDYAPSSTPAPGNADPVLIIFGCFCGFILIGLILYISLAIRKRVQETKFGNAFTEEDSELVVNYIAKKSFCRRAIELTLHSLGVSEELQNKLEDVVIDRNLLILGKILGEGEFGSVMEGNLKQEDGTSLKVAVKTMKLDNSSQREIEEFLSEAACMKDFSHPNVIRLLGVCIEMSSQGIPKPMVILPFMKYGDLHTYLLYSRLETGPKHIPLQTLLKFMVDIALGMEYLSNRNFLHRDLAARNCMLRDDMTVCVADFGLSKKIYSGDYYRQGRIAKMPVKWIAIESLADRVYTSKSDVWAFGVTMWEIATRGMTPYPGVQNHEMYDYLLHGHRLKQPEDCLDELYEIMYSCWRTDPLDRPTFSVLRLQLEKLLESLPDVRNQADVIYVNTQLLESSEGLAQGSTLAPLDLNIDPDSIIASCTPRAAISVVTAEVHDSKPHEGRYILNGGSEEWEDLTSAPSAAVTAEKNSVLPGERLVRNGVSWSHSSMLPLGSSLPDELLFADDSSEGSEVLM
# Assay: LanthaScreen Eu kinase binding assay for Mer
# Conditions: read-out: Mer kinase binding activity (Kd)
# Outline: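 Competitive displacement of Alexa Fluor 647-labeled Tracer 236 from the kinase, with binding detected by TR-FRET with a Eu-labeled anti-GST antibody. Compounds were run as 8-step DMSO serial dilutions and incubated 1 h at room temperature. Kd was calculated relative to DMSO vehicle control wells.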
row,pKd,SMILES
1,> 7.00,COc1cc2nccc(Oc3ccc(NC(=O)c4nn(CC(C)=O)cc4OCC(F)(F)F)nc3)c2cc1OC [Compound 19]
2,> 7.00,COc1cc2nccc(Oc3ccc(NC(=O)c4nn(CC5CCCCC5)cc4OCC(F)(F)F)nc3)c2cc1OC [Compound 43]
3,> 7.00,COc1cc2nccc(Oc3ccc(NC(=O)c4nn(CCNC5CC5)cc4OCC(F)(F)F)nc3)c2cc1OC [Compound 168]
4,> 7.00,COc1cc2nccc(Oc3ccc(NC(=O)c4nn(CCO)cc4OCC(F)(F)F)nc3)c2cc1OC [Compound 67]
5,> 7.00,COc1cc2nccc(Oc3ccc(NC(=O)c4nn(CC(C)(F)F)cc4OCC(F)(F)F)nc3)c2cc1OC [Compound 64]
6,> 7.00,COc1cc2nccc(Oc3ccc(NC(=O)c4nn(CCCN)cc4OCC(F)(F)F)nc3)c2cc1OC [Compound 68]
7,> 7.00,COc1cc2nccc(Oc3ccc(NC(=O)c4nn(CC5CCOC5)cc4OCC(F)(F)F)nc3)c2cc1OC (stereo not shown) [Compound 44]
8,> 7.00,COc1cc2nccc(Oc3ccc(NC(=O)c4nn(CC5CCC5)cc4OCC(F)(F)F)nc3)c2cc1OC [Compound 42]
9,> 7.00,COc1cc2nccc(Oc3ccc(NC(=O)c4nn(CC(C)O)cc4OCC(F)(F)F)nc3)c2cc1OC (stereo not shown) [Compound 17]
10,> 7.00,COc1cc2nccc(Oc3ccc(NC(=O)c4nn(C[C@@H](C)O)cc4OCC(F)(F)F)nc3)c2cc1OC [Compound 29]
11,> 7.00,COc1cc2nccc(Oc3ccc(NC(=O)c4nn(C5CCCC5)cc4OCC(F)(F)F)nc3)c2cc1OC [Compound 40]
12,> 7.00,COc1cc2nccc(Oc3ccc(NC(=O)c4nn(CC5CCCC5)cc4OCC(F)(F)F)nc3)c2cc1OC [Compound 71]
13,> 7.00,CCCCn1cc(OCC(F)(F)F)c(C(=O)Nc2ccc(Oc3ccnc4cc(OC)c(OC)cc34)cn2)n1 [Compound 36]
14,6.30 to 7.00,COc1cc2nccc(Oc3ccc(NC(=O)c4nn(CC5CNC5)cc4OCC(F)(F)F)nc3)c2cc1OC [Compound 73]
15,> 7.00,COc1cc2nccc(Oc3ccc(NC(=O)c4nn(CC(C)C)cc4OCC(F)(F)F)nc3)c2cc1OC [Compound 21]
16,> 7.00,COc1cc2nccc(Oc3ccc(NC(=O)c4nn(CCOC5CCC5)cc4OCC(F)(F)F)nc3)c2cc1OC [Compound 65]
17,> 7.00,COc1cc2nccc(Oc3ccc(NC(=O)c4nn(CCCO)cc4OCC(F)(F)F)nc3)c2cc1OC [Compound 18]
18,> 7.00,COc1cc2nccc(Oc3ccc(NC(=O)c4nn(C5CC5)cc4OCCC(F)(F)F)nc3)c2cc1OC [Compound 170]
19,> 7.00,COc1cc2nccc(Oc3ccc(NC(=O)c4nn(CC5CC5)cc4OCC(F)(F)F)nc3)c2cc1OC [Compound 41]
20,> 7.00,COc1cc2nccc(Oc3ccc(NC(=O)c4nn(C5CCNC5)cc4OCC(F)(F)F)nc3)c2cc1OC (stereo not shown) [Compound 70]
21,> 7.00,COc1cc2nccc(Oc3ccc(NC(=O)c4nn(C5CCOC5)cc4OCC(F)(F)F)nc3)c2cc1OC (stereo not shown) [Compound 13]

# The remaining lines, values behind:
row,SMILES,pKd
1,CCCn1cc(OCCN(C)C)c(C(=O)Nc2ccc(Oc3ccnc4cc(OC)c(OC)cc34)cn2)n1 [Compound 177],6.30 to 7.00
2,COCCn1cc(OCC(F)(F)F)c(C(=O)Nc2ccc(Oc3ccnc4cc(OC)c(OC)cc34)cc2)n1 [Compound 61],> 7.00
3,COc1cc2nccc(Oc3ccc(NC(=O)c4nn(CCO)cc4OCC(F)(F)F)cc3C)c2cc1OC [Compound 56],> 7.00
4,COc1cc2nccc(Oc3ccc(NC(=O)c4nn(C5CCCCC5)cc4OCC(F)(F)F)nc3)c2cc1OC [Compound 69],> 7.00
5,CCCn1cc(OCC(F)(F)F)c(C(=O)Nc2ccc(Oc3ccnc4cc(OC)c(OC)cc34)cc2C)n1 [Compound 27],> 7.00
6,COc1cc2nccc(Oc3ccc(NC(=O)c4nn(C5CCCC5)cc4OCC(F)(F)F)c(F)c3)c2cc1OC [Compound 47],> 7.00
7,CCCn1cc(OCCC(O)CO)c(C(=O)Nc2ccc(Oc3ccnc4cc(OC)c(OC)cc34)cn2)n1 (stereo not shown) [Compound 15],> 7.00
8,COc1cc2nccc(Oc3ccc(NC(=O)c4nn(C5CCOC5)cc4OCC(F)(F)F)cc3)c2cc1OC (stereo not shown) [Compound 62],> 7.00
9,COc1cc2nccc(Oc3ccc(NC(=O)c4nn(C5CC5)cc4OCC4CNC4)nn3)c2cc1OC [Compound 172],≤ 6.30
10,CCCn1cc(OCC(F)(F)F)c(C(=O)Nc2ccc(Oc3ccnc4cc(OC)c(OC)cc34)cc2F)n1 [Compound 28],> 7.00
11,COCCOc1cn(C2CC2)nc1C(=O)Nc1ccc(Oc2ccnc3cc(OC)c(OC)cc23)nn1 [Compound 171],6.30 to 7.00
12,COc1cc2nccc(Oc3ccc(NC(=O)c4nn(C5CCCC5)cc4OCC(F)(F)F)cc3)c2cc1OC [Compound 60],> 7.00
13,COc1cc2nccc(Oc3ccc(NC(=O)c4nn(C)cc4OCC(F)(F)F)c(F)c3)c2cc1OC [Compound 45],> 7.00
14,CCCn1cc(OCC(F)(F)F)c(C(=O)Nc2ccc(Oc3ccnc4cc(OC)c(OC)cc34)nn2)n1 [Compound 32],> 7.00
15,COc1cc2nccc(Oc3ccc(NC(=O)c4nn(CCO)cc4OCC(F)(F)F)cc3)c2cc1OC [Compound 59],> 7.00
16,COc1cc2nccc(Oc3ccc(NC(=O)c4nn(CC(C)C)cc4OCC(F)(F)F)cc3F)c2cc1OC [Compound 53],> 7.00
17,CCCn1cc(N(C)CC2CCOCC2)c(C(=O)Nc2ccc(Oc3ccnc4cc(OC)c(OC)cc34)cn2)n1 [Compound 34],6.30 to 7.00
18,CCCn1cc(OCC2CCC2)c(C(=O)Nc2ccc(Oc3ccnc4cc(OC)c(OC(F)(F)F)cc34)cn2)n1 [Compound 167],> 7.00
19,CCCn1cc(NCC(F)(F)F)c(C(=O)Nc2ccc(Oc3ccnc4cc(OC)c(OC)cc34)cn2)n1 [Compound 23],> 7.00
20,COc1cc2nccc(Oc3ccc(NC(=O)c4nn(C(C)C)c(C)c4OCC(F)(F)F)nc3)c2cc1OC [Compound 2],> 7.00

row,SMILES,pKd
1,COc1cc2nccc(Oc3ccc(NC(=O)c4nn(CCN)cc4OCC(F)(F)F)c(F)c3)c2cc1OC [Compound 75],6.30 to 7.00
2,COc1cc2nccc(Oc3ccc(NC(=O)c4nn(CC(C)O)cc4OCC4CN(C)C4)nc3)c2cc1OC (stereo not shown) [Compound 174],≤ 6.30
3,COc1cc2nccc(Oc3ccc(NC(=O)c4nn(C5CC5)c(C(C)=O)c4OCC(F)(F)F)nc3)c2cc1OC [Compound 3],> 7.00
4,COc1cc2nccc(Oc3ccc(NC(=O)c4cc(C5CC5)cnc4OCC(F)(F)F)nc3)c2cc1OC [Compound 178],> 7.00
5,COc1cc2nccc(Oc3ccc(NC(=O)c4nn(C5CCNC5)cc4OCC(F)(F)F)c(F)c3)c2cc1OC (stereo not shown) [Compound 74],6.30 to 7.00
6,COc1cc2nccc(Oc3ccc(NC(=O)c4nn(C(C)(C)C)cc4OCC(F)(F)F)nc3)c2cc1OC [Compound 22],> 7.00
7,CCCn1cc(OCC(F)(F)F)c(C(=O)Nc2ccc(Oc3ccnc4cc(OC)c(OC)cc34)cc2)n1 [Compound 38],> 7.00
8,COc1cc2nccc(Oc3ccc(NC(=O)c4nn(C)cc4OCC(F)(F)F)cc3F)c2cc1OC [Compound 50],> 7.00
9,COc1cc2nccc(Oc3ccc(NC(=O)c4nn(C5CC5)cc4OCCC(F)(F)F)nn3)c2cc1OC [Compound 173],> 7.00
10,COc1cc2nccc(Oc3ccc(NC(=O)c4nn(C5CCCC5)cc4OCC(F)(F)F)cc3F)c2cc1OC [Compound 52],> 7.00
11,CCn1nc(C(=O)Nc2ccc(Oc3ccnc4cc(OC)c(OC)cc34)cn2)c(OCC(F)(F)F)c1C [Compound 1],> 7.00
12,CCCn1cc(OC(C)C)c(C(=O)Nc2ccc(Oc3ccnc4cc(OC)c(OC(F)(F)F)cc34)c(F)c2)n1 [Compound 35],≤ 6.30
13,COc1cc2nccc(Oc3ccc(NC(=O)c4nn(CCO)cc4OCC(F)(F)F)c(F)c3)c2cc1OC [Compound 46],> 7.00
14,COCCn1cc(OCC(F)(F)F)c(C(=O)Nc2ccc(Oc3ccnc4cc(OC)c(OC)cc34)cc2F)n1 [Compound 49],> 7.00
15,CCCn1cc(OCC(F)(F)F)c(C(=O)Nc2ccc(Oc3ccnc4cc(OC)c(OC)cc34)c(F)c2)n1 [Compound 25],> 7.00
16,COc1cc2nccc(Oc3ccc(NC(=O)c4nn(CC(C)C)cc4OCC(F)(F)F)cc3C)c2cc1OC [Compound 58],> 7.00
17,COc1cc2nccc(Oc3ccc(NC(=O)c4nn(C)cc4OCC(F)(F)F)cc3C)c2cc1OC [Compound 37],> 7.00
18,CCCn1cc(OCC(F)(F)F)c(C(=O)Nc2ccc(Oc3ccnc4cc(OC)c(OC)cc34)c(C)c2)n1 [Compound 26],> 7.00
19,COc1cc2nccc(Oc3ccc(NC(=O)c4nn(CCO)cc4OCC(F)(F)F)cc3F)c2cc1OC [Compound 51],> 7.00
20,COc1cc2nccc(Oc3ccc(NC(=O)c4nn(C5CCCC5)cc4OCC(F)(F)F)cc3C)c2cc1OC [Compound 57],> 7.00
